“Also recorded” adds a separate entry of the source.
Legend:
[1] = system: α-Glucosidase (E.C.3.2.1.20); assay: α-Glucosidase enzyme inhibition assay; assay type: biochemical; details: for Active (activity against alpha-glucosidase enzyme): Table 1; for IC50: pH 6.9, 37° C., 0.7 mM PNP-G substrate, NA = inactive compounds
Procedure: α-Glucosidase Enzyme Inhibition Assay
α-Glucosidase (E.C.3.2.1.20) enzyme inhibition assay has been performed according to the slightly modified method of Matsui et al. α-Glucosidase (E.C.3.2.1.20) from Saccharomyces sp. was purchased from Wako Pure Chemical Industries Ltd. (Wako 076-02841). The inhibition has been measured spectrophotometrically at pH 6.9 and at 37° C. using 0.7 mM p-nitrophenyl α-D glucopyranoside (PNP-G) as a substrate and 250 m units/mL enzyme in 50 mM sodium phosphate buffer containing 100 mM NaCl. […] The increment in absorption at 400 nm due to the hydrolysis of PNP-G by α-glucosidase was monitored continuously with the spectrophotometer (Molecular Devices, USA). The concentrations of the test compounds, which inhibited the hydrolysis of PNP-G by α-glucosidase by 50% (IC50), were determined by monitoring the effect of increasing the concentration of these compounds on the inhibition values. The IC50 values were then calculated using EZ-Fit enzyme kinetics program (Perrella Scientific Inc., Amherst, Mass., U.S.A.).

[2] = biological target: T1, enzyme tyrosinas (Homo sapiens, UniProt P14679); assay: inhibitory activity against enzyme tyrosinas; assay type: biochemical
T1 sequence (P14679 19-529): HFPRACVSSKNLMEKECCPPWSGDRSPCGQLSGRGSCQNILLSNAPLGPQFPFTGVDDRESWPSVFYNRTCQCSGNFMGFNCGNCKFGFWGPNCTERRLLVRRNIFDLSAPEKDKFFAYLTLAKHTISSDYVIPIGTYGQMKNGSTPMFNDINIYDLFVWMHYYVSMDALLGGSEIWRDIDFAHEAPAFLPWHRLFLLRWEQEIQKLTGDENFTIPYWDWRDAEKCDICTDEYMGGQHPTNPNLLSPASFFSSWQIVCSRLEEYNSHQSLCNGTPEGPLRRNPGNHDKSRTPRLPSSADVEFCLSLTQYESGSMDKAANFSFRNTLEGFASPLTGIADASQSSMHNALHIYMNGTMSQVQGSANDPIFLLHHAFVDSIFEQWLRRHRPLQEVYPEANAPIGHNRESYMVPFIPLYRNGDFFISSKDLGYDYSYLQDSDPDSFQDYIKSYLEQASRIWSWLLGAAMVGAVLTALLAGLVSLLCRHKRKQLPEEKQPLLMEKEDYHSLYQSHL

In the case of C#CC1(O)CCC2C3C(C)C(O)C4=CC(=O)CCC4C3CCC21C (stereo not drawn) [Compound 13, 6α-Hydroxy-Δ^4-tibolone], the “inhibitory activity against α-Glucosidase enzyme (in words)” value [1] is reported as “pronounced inhibitory activities; also recorded: pronounced inhibitory activity”, the “Active (activity against alpha-glucosidase enzyme)” value (“Active” for short) [1] is reported as “Yes” and the IC50 [1] is reported as under 70 µM. For the same compound, the melting point was 187 to 190 °C.

With C#CC1(O)CCC2C3C(C)CC4=CC(=O)CCC4(O)C3CCC21C (stereo not drawn) [Compound 8, 7α-methyl-17α-ethynl-10β,17β-dihydroxy-19-norandrost-4-en-3-one] the “inhibitory activity against α-Glucosidase enzyme (in words)” value [1] was “pronounced inhibitory activities”, the “Active” value [1] was “No” and the IC50 [1] was 877 ± 0.03 µM.

For C#C[C@]1(O)CC[C@H]2[C@@H]3[C@H](C)CC4=C(CC[C@@H](O)C4)[C@H]3CC[C@@]21C [Compound 3, 3α-hydroxytibolone], the “Active” value [1] was “No”.

For C#CC1(O)CCC2C3C(C)C(O)C4=CC(=O)CCC4C3CCC21C (stereo not drawn) [Compound 12, 6β-Hydroxy-Δ^4-tibolone], the “inhibitory activity against α-Glucosidase enzyme (in words)” value [1] was “pronounced inhibitory activities; also recorded: pronounced inhibitory activity”, the “Active” value [1] was “Yes” and the IC50 [1] was 653 ± 0.02 µM. The melting point was 189 to 193 °C.

With C#C[C@]1(O)CC[C@H]2[C@@H]3[C@H](C)CC4=C(CC[C@H](O)C4)[C@H]3CC[C@@]21C [Compound 2, 3β-hydroxytibolone] the “Active” value [1] was “No”.

In the case of C#CC1(O)CC(O)C2C3C(C)CC4=CC(=O)CCC4C3CCC21C (stereo not drawn) [Compound 14, 15α-Hydroxy-Δ^4-tibolone], the “Active” value [1] is reported as “Yes” and the IC50 [1] is reported as under 70 µM.

With C#CC1(O)CCC2C3C(C)C(O)C4=CC(=O)C=CC4C3CCC21C (stereo not drawn) [Compound 15, 7α-methyl-17α-ethynl-6α,17β-dihydroxy-19-norandrost-1,4-dien-3-one] the “inhibitory activity against α-Glucosidase enzyme (in words)” value [1] was “significant activity; also recorded: pronounced inhibitory activity”, the “Active” value [1] was “Yes” and the IC50 [1] was 340 ± 0.02 µM.

In the case of C#C[C@]1(O)CC[C@H]2[C@@H]3[C@H](C)CC4=C(CCC(=O)C4)[C@H]3CC[C@@]21C [Compound 1, Tibolone], the “Active” value [1] is reported as “No”.

For C#CC1(O)CCC2C3C(C)C=C4CC(=O)CCC4C3CCC21C (stereo not drawn) [Compound 11, 7α-methyl-17α-ethynl-17β-hydroxy-19-norandrost-5-en-3-one], the “Active” value [1] was “No”.

For C#CC1(O)CC(O)C2C3C(C)C=C4CC(=O)CCC4C3C(O)CC21C (stereo not drawn) [Compound 10, 7α-methyl-17α-ethynl-11α,15β,17β-trihydroxy-19-norandrost-5-en-3-one], the “Active” value [1] was “No” and the “inhibitory activity against enzyme tyrosinas (in words)” value [2] was “pronounced inhibitory activity”.

In the case of C#CC1(O)CCC2C3C(C)CC4=CC(=O)C=CC4C3CCC21C (stereo not drawn) [Compound 7, 7α-methyl-17α-ethynl-17β-hydroxy-19-norandrost-1,4-dien-3-one], the “inhibitory activity against α-Glucosidase enzyme (in words)” value [1] is reported as “significant activity”, the “Active” value [1] is reported as “Yes” and the IC50 [1] is reported as 227 ± 0.02 µM.

With C#C[C@]1(O)CC[C@H]2[C@@H]3[C@H](C)[C@@H](OC)C4=CC(=O)CC[C@@H]4[C@H]3CC[C@@]21C [Compound 16, 7α-methyl-17α-ethynl-6β-methoxy-17β-hydroxy-19-norandrost-4-en-3-one] the “Active” value [1] was “No”.

With C#CC1(O)CC(O)C2C3C(C)CC4=C(CCC(=O)C4)C3C(O)CC21C (stereo not drawn) [Compound 9, 7α-methyl-17α-ethynl-11α,15β,17β-trihydroxy-19-norandrost-5(10)-en-3-one] the “Active” value [1] was “No” and the “inhibitory activity against enzyme tyrosinas (in words)” value [2] was “pronounced inhibitory activity”.

Reference: US8148556B2, “Method of producing tibolone metabolites by fermentation with Rhizopus stolonifer” (priority 2007, dated 2012)
